In patent US9226950B2, “Method and composition for treating diabetes mellitus” (National Dong Hwa University, priority 2013, dated 2016):

Experiments:
L6 myotubes = test: Glucose uptake assay (2-deoxyglucose) in L6 myotubes; format: cell-based, rat; conditions: FIG. 4
Experimental: […] muscle myoblast cells (L6) was a generous gift from Professor Hitoshi Ashida's Lab. (Kobe University, Kobe, Japan). The cells were grown and maintained in α-minimal essential medium (α-MEM, 12000022, GIBCO, CA, USA) containing 10% fetal bovine serum (FBS, GIBCO) and 1% penicillin streptomycin (GIBCO) in a cell culture incubator with 5% CO2 at 37° C. Prior to the following experiments, the cells were seeded and cultured at a density of 8×10^3 cells per well in 96-well plates or 2.5×10^5 cells per well in 6-well plates. After the myoblasts achieved 80% confluence, the cells were incubated for 5 days in the α-MEM supplemented with 2% FBS to induce differentiation to myotubes.
The glucose uptake assay was followed the study disclosed in Yamamoto et al. (“An enzymatic fluorimetric assay to quantitate 2-deoxyglucose and 2-deoxyglucose-6-phosphate for in vitro and in vivo use.” Anal Biochem 404(2): 238-240, 2010) with minor modification and the technique generously assistant from Professor Hitoshi Ashida's Lab (Kobe University, Kobe, Japan). […] Uptake of 2DG into the cells was measured by the enzymatic fluorescence assay. The fluorescence assay buffer was composed of 50 mM TEA buffer, 0.1% BSA, 2.5 mM β-NADP (Wako Pure Chemical, Osaka, Japan), 0.05 unit Diaphorase (Wako), 150 unit/L. mesenteriodes G6PDH (sigma), and 0.5 mM Resazurin sodium salt (sigma). […]

[1] = system: S961-induced hyperglycemic mice (DM mice); test: Oral glucose tolerance test (OGTT) in S961-induced hyperglycemic mice; format: in vivo, C57BL/6 mouse; conditions: D-glucose 2 g/kg
Experimental: Animal experiments were approved by the National Dong-Hwa University Animal Ethics Committee and were used according to the “Guide for the Care and Use of Laboratory Animals” of National Dong-Hwa University. The C57BL/6 mouse were obtained National Laboratory Animal Center (Taipei, Taiwan) and kept at controlled environmental conditions with room temperature (22±2° C.) and humidity (50±10%). The 12 hr light (0600 am-1800 pm) and 12 hr dark cycle was maintained throughout the study. Mice had free access to food and water and maintained on a standard laboratory diet (containing carbohydrates: 60%, proteins: 28%, lipids: 12%, and vitamins: 3%).
The 8 weeks old male C57 BL/6 mice after fasting 12 hr were used in this test. The mice were orally administered (p.o.) with tetracosanol (dissolved in PEG and EtOH, 25 mg/kg Bwt) or Metformin (100 mg/kg Bwt) for 3 hr. To investigate the effect of tetracosanol on the DM mice, the mice were intraperitoneally injected (i.p.) with S961 (50 nmol/kg Bwt) to induce hyperglycemia, prior to the administration of D-glucose (2 g/kg Bwt, p.o.). At approximately the 0, 30, 60, 90, and 120 min., the blood of each mouse was sampled by venipuncture from the tail vein for the determination of blood glucose. Blood glucose was immediately determined by the glucose oxidase method using glucose analyzer (Accu-Chek, Roche).
To investigate the glycemic control effect of tetracosanol on the hyperglycemic mice, hyperglycemic mice were induced by insulin receptor antagonist-S961. The mice of each group were treated with or without Metformin (Met) as positive control, or treated with or without tetracosanol (Tet). Then, all the groups were administered with D-glucose (2 g/kg Bwt) (n=6 in each group). The tetracosanol for glycemic control was confirmed by OGTT.
8 weeks old male C57 BL/6 mice after fasting 12 hr were employed in this study. […] The blood glucose was determined by the glucose oxidase method using glucose analyzer (Accu-Chek, Roche). […]

CCCCCCCCCCCCCCCCCCCCCCCCO [tetracosanol]
cell glucose uptake (L6 myotubes; 1 μM insulin plus 400 nM S961 and 10 μM tetracosanol (Ins+S961+Tet) versus Ins+Tet): synergistic effect
cell glucose uptake (L6 myotubes; 10 μM tetracosanol with 1 μM insulin (Ins+Tet)): enhanced the cell glucose uptake
blood glucose change in OGTT ([1]; DM mice (S961), p.o., comparison with metformin, FIG. 6(a)): even better than metformin
blood glucose change in OGTT ([1]; tetracosanol 25 mg/kg Bwt p.o. versus Metformin 100 mg/kg Bwt, S961 50 nmol/kg i.p., FIG. 5(a)): profile similar to the treatment with metformin
AUC of the blood glucose change in OGTT ([1]; tetracosanol 25 mg/kg Bwt p.o., DM mice (S961) and normal mice (Con), FIG. 5(b)): good efficacy in glycemic control
